Reference: paper PMC10712727, “Safety, Tolerability, and Pharmacokinetics of Senaparib, a Novel PARP1/2 Inhibitor, in Chinese Patients With Advanced Solid Tumors: A Phase I Trial” (The Oncologist, 2023)

Assay: Plasma pharmacokinetics in continuous dosing period, cycle 1 day 15 steady state (HPLC-MS/MS)
Type: in vivo, human
Conditions: for Rac, accumulation ratio (mean±SD) / Vss/F (mean±SD): cycle 1 day 15
Experimental: Dose escalation was conducted using a modified Fibonacci 3 + 3 method (Supplementary Fig. […] At a given dose level, each patient received a single dose of senaparib followed by a 7-day washout period. They then entered a continuous dosing period to confirm the safety and PK profile, in which they received senaparib QD from day 1 to day 21 of each 3-week cycle. Progression to the next higher dose required approval from the Data Safety Monitoring Committee (DSMC) upon review of the safety and PK data of the previous dose. A 50-mg twice-daily (BID) dosing group was added (planned enrollment, n = 6 patients) based on a DSMC review of the safety, PK, and efficacy analysis of the completed QD dose groups in the phase I clinical trial of senaparib dose escalation in Australia (NCT03507543), which commenced prior to the start of this trial. Safety was assessed by recording the incidence of dose-limiting toxicities (DLTs), and the incidence, nature, severity (graded per National Cancer Institute Common Terminology Criteria for Adverse Events version 4.03 [NCI CTCAE v4.03][18]), and relatedness of treatment-emergent adverse events (TEAEs). DLTs were predefined toxicities (Supplementary Table S2) recorded over the 7 days following the single-dose administration of senaparib and during the first treatment cycle (day 1-day 21) for each dose group in the dose-escalation period only. […] Senaparib PK parameters were derived from blood samples collected from patients after the single administration, and at regular intervals during the first cycle of the dose-escalation and dose-expansion periods. Plasma concentrations of senaparib were determined using high-performance liquid chromatography-tandem mass spectrometry. […] There was no formal sample size calculation based on statistical hypothesis testing for this study; the planned enrolment was approximately 30-60 patients across the dose-escalation and dose-expansion cohorts. The actual number in the dose-escalation cohort was adjusted based on the number of dose cohorts required for the modified Fibonacci dose-escalation design and the determined MTD. Definitions for all analysis populations (safety, DLT, PK, and efficacy [intent-to-treat, ITT]) are provided in Supplementary Table S2. No statistical tests were performed; patient demographic and baseline characteristics, safety/tolerability, PK parameters, and efficacy were evaluated descriptively. ORR and DCR and their 95% CIs were calculated for each group using the exact probability method. Kaplan-Meier statistics were used to estimate DOR and PFS, and their 95% CIs for each dose group separately. Dose linearity was explored based on the single-dose data of area under the time-concentration curve (AUC) and maximum plasma concentration (Cmax) using the power model (Y = α × dose β) for the dose range 2-80 mg on a log-transformed scale. The following criterion was used to determine whether dose proportionality was met: if the (2-sided) 90% CI for β was wholly contained within the interval (1 + log(0.5)/log(r), 1 + log(2)/log(r)), then dose proportionality was supported. Here, r was defined as the ratio of the highest to lowest dose. All data analyses were carried out using SAS EG7.1 or higher or (for PK parameters) WinNonlin 7.0 or higher.

For `O=C(c1cc(Cn2c(=O)[nH]c(=O)c3c(F)cccc32)ccc1F)N1CCN(c2ncccn2)CC1` [Senaparib], the “Rac, accumulation ratio (mean±SD)” value (2 mg QD (n/N = 1/1)) was 1.5, the “Vss/F (mean±SD)” value (2 mg QD (n/N = 1/1)) was 16.6 L and the “Rac, accumulation ratio (mean±SD)” value (5 mg QD (n/N = 3/3)) was 1.4±0.4. For the same molecule, the “Vss/F (mean±SD)” value (5 mg QD (n/N = 3/3)) was 19.8 ± 7.7 L, the “Rac, accumulation ratio (mean±SD)” value (10 mg QD (n/N = 3/3)) was 1.4±0.2 and the “Vss/F (mean±SD)” value (10 mg QD (n/N = 3/3)) was 24.9 ± 4.3 L. The “Rac, accumulation ratio (mean±SD)” value (20 mg QD (n/N = 5/5)) was 1.2±0.2, the “Vss/F (mean±SD)” value (20 mg QD (n/N = 5/5)) was 18.1 ± 2.5 L and the “Rac, accumulation ratio (mean±SD)” value (40 mg QD (n/N = 3/3)) was 1.1±0.1. The “Rac, accumulation ratio (mean±SD)” value (50 mg BID (n/N = 4/4)) was 1.8±0.4, the “Vss/F (mean±SD)” value (50 mg BID (n/N = 4/4)) was 39.9 ± 3.4 L and the “Rac, accumulation ratio (mean±SD)” value (60 mg QD (n/N = 5/5)) was 1.1±0.0. The “Vss/F (mean±SD)” value (60 mg QD (n/N = 5/5)) was 32.1 ± 13.0 L, the “Rac, accumulation ratio (mean±SD)” value (80 mg QD (n/N = 9/9)) was 1.2±0.1 and the “Vss/F (mean±SD)” value (80 mg QD (n/N = 9/9)) was 38.8 ± 23.5 L. The “Rac, accumulation ratio (mean±SD)” value (100 mg QD (n/N = 20/20)) was 1.2±0.1, the “Vss/F (mean±SD)” value (100 mg QD (n/N = 20/20)) was 40.1 ± 21.9 L and the “Rac, accumulation ratio (mean±SD)” value (120 mg QD (n/N = 4/4)) was 1.2±0.2. For the same molecule, the “Vss/F (mean±SD)” value (120 mg QD (n/N = 4/4)) was 1.3 ± 39.5 L, the “Accumulation ratio (Rac)” value (after BID administration) was 1.8 and the “Accumulation ratio (mean Rac)” value (after repeated QD administration) was 1.1-1.5. For the same molecule, the “AUC from time zero to 24 h post dose” value (human, in vivo) was “approximately 35 918 h*ng/mL”, the “AUC from time zero to the last measurable concentration” value (human, in vivo) was 33 827 h*ng/mL and the “AUC0-inf, mean±SD” value (human, in vivo, 2 mg) was 4361.8 ng·h/mL. For the same molecule, the “AUC0-t, mean±SD” value (human, in vivo, 2 mg) was 2753.5 ng·h/mL, the “CLss/F (mean±SD)” value (human, in vivo, 2 mg) was 0.7 L/h and the “Cmax, mean±SD” value (human, in vivo, 2 mg) was 203.0 ng/mL. For the same molecule, the “Tmax, median (range)” value (human, in vivo, 2 mg) was 2.0 (2.0-2.0) h, the “t½, median (range)” value (human, in vivo, 2 mg) was 16.0 (16.0-16.0) h and the “AUC0-inf, mean±SD” value (human, in vivo, 5 mg) was 9655.4±11 022.2 h*ng/mL. The “AUC0-t, mean±SD” value (human, in vivo, 5 mg) was 6013.7 ± 5649.0 ng·h/mL, the “CLss/F (mean±SD)” value (human, in vivo, 5 mg) was 1.6 ± 1.3 L/h and the “Cmax, mean±SD” value (human, in vivo, 5 mg) was 470.7 ± 354.0 ng/mL. The “Tmax, median (range)” value (human, in vivo, 5 mg) was 2.0 (2.0-2.0) h, the “t½, median (range)” value (human, in vivo, 5 mg) was 10.3 (6.4-21.4) h and the “AUC0-inf, mean±SD” value (human, in vivo, 10 mg) was 10 553.4±2657.5 h*ng/mL. For the same molecule, the “AUC0-t, mean±SD” value (human, in vivo, 10 mg) was 7506.4 ± 892.6 ng·h/mL, the “CLss/F (mean±SD)” value (human, in vivo, 10 mg) was 1.3 ± 0.2 L/h and the “Cmax, mean±SD” value (human, in vivo, 10 mg) was 598.7 ± 67.9 ng/mL. For the same molecule, the “Tmax, median (range)” value (human, in vivo, 10 mg) was 4.0 (2.0-4.0) h, the “t½, median (range)” value (human, in vivo, 10 mg) was 13.2 (9.4-16.8) h and the “AUC0-inf, mean±SD” value (human, in vivo, 20 mg) was 22 122.4±18 526.0 h*ng/mL. The “AUC0-t, mean±SD” value (human, in vivo, 20 mg) was 16 213.5±9863.9 h*ng/mL, the “CLss/F (mean±SD)” value (human, in vivo, 20 mg) was 1.6 ± 0.8 L/h and the “Cmax, mean±SD” value (human, in vivo, 20 mg) was 1483.2 ± 487.8 ng/mL. The “Tmax, median (range)” value (human, in vivo, 20 mg) was 2.0 (1.8-2.0) h, the “t½, median (range)” value (human, in vivo, 20 mg) was 9.4 (5.5-17.5) h and the “AUC0-inf, mean±SD” value (human, in vivo, 40 mg) was 22 437.1±5342.9 h*ng/mL. The “AUC0-t, mean±SD” value (human, in vivo, 40 mg) was 19 566.5±3285.1 h*ng/mL, the “CLss/F (mean±SD)” value (human, in vivo, 40 mg) was 2.1 ± 0.4 L/h and the “Cmax, mean±SD” value (human, in vivo, 40 mg) was 2013.3 ± 280.2 ng/mL. The “Tmax, median (range)” value (human, in vivo, 40 mg) was 1.9 (1.8-2.0) h, the “t½, median (range)” value (human, in vivo, 40 mg) was 7.5 (5.5-9.2) h and the “AUC0-inf, mean±SD” value (human, in vivo, 50 mg) was 38 418.9±19 776.1 h*ng/mL. The “AUC0-t, mean±SD” value (human, in vivo, 50 mg) was 17 959.6±5287.0 h*ng/mL, the “CLss/F (mean±SD)” value (human, in vivo, 50 mg) was 2.8 ± 0.8 L/h and the “Cmax, mean±SD” value (human, in vivo, 50 mg) was 2152.5 ± 354.3 ng/mL. For the same molecule, the “Tmax, median (range)” value (human, in vivo, 50 mg) was 2.0 (1.9-3.7) h, the “t½, median (range)” value (human, in vivo, 50 mg) was 9.7 (7.8-15.2) h and the “AUC0-inf, mean±SD” value (human, in vivo, 60 mg) was 19 189.5±10 074.3 h*ng/mL. For the same molecule, the “AUC0-t, mean±SD” value (human, in vivo, 60 mg) was 17 777.2±8739.1 h*ng/mL, the “CLss/F (mean±SD)” value (human, in vivo, 60 mg) was 4.6 ± 3.6 L/h and the “Cmax, mean±SD” value (human, in vivo, 60 mg) was 2056.0 ± 975.0 ng/mL. For the same molecule, the “Tmax, median (range)” value (human, in vivo, 60 mg) was 2.0 (1.9-3.9) h, the “t½, median (range)” value (human, in vivo, 60 mg) was 5.8 (3.4-7.7) h and the “AUC0-inf, mean±SD” value (human, in vivo, 80 mg) was 48 747.0±33 189.7 h*ng/mL. The “AUC0-t, mean±SD” value (human, in vivo, 80 mg) was 37 727.0±21 476.1 h*ng/mL, the “CLss/F (mean±SD)” value (human, in vivo, 80 mg) was 2.9 ± 1.8 L/h and the “Cmax, mean±SD” value (human, in vivo, 80 mg) was 3487.8 ± 1649.2 ng/mL. The “Tmax, median (range)” value (human, in vivo, 80 mg) was 2.0 (1.9-3.8) h, the “t½, median (range)” value (human, in vivo, 80 mg) was 9.7 (5.8-14.4) h and the “AUC0-inf, mean±SD” value (human, in vivo, 100 mg) was 40 080.4±16 731.2 h*ng/mL. For the same molecule, the “AUC0-t, mean±SD” value (human, in vivo, 100 mg) was 33 827.1±12 273.6 h*ng/mL, the “CLss/F (mean±SD)” value (human, in vivo, 100 mg) was 3.5 ± 1.8 L/h and the “Cmax, mean±SD” value (human, in vivo, 100 mg) was 3212.5 ± 765.1 ng/mL. The “Tmax, median (range)” value (human, in vivo, 100 mg) was 1.9 (1.8-4.1) h, the “t½, median (range)” value (human, in vivo, 100 mg) was 7.5 (5.3-16.1) h and the “AUC0-inf, mean±SD” value (human, in vivo, 120 mg) was 87 799.1±11 6874.0 h*ng/mL. For the same molecule, the “AUC0-t, mean±SD” value (human, in vivo, 120 mg) was 62 737.2±74517.1 h*ng/mL, the “CLss/F (mean±SD)” value (human, in vivo, 120 mg) was 4.3 ± 3.3 L/h and the “Cmax, mean±SD” value (human, in vivo, 120 mg) was 5107.5 ± 4893.2 ng/mL. The “Tmax, median (range)” value (human, in vivo, 120 mg) was 2.0 (1.9-2.1) h and the “t½, median (range)” value (human, in vivo, 120 mg) was 8.8 (6.0-15.2) h.
